According to patent US4425337A, “Adjuvants for rectal delivery of drug” (priority 1981, dated 1984):

Columns and labels:
[1] = rat, in vivo, 10 mg/kg, 1.5 h
Procedure: (§1) Microenemas are defined as small volume (0.3 ml) aqueous solutions containing drug/adjuvant compounds, administered with a 1 cc syringe at an intra-rectal depth of 2.5 cm.
AUC means area under serum drug level curve from t=0 minutes to t=90 minutes.
Gentamicin bioavailability: Concentration curves for chlorpromazine and perphenazine in rat microenema rectal delivery system.

[2] = rat, in vivo; for % Bioavailability ± SEM, Gentamicin: 90 min
Procedure: as §1
The cefoxitin or gentamicin was administered as sodium cefoxitin or gentamicin sulfate at 10 mg/kg body weight. The adjuvants were administered at 20 mg/kg body weight and n represents the number of animals.

[3] = in vivo; settings: rat, 10 mg/kg
Procedure: Method: Adult male Sprague/Dawley rats (anesthetized with ethylcarbamate) were given intra-rectal aqueous microenemas. Microenemas are defined as small volume (0.3 ml) aqueous solutions containing drug/adjuvant compounds, administered with a 1 cc syringe at an intra-rectal depth of 2.5 cm. Bioavailabilities versus intravenous administration were calculated as a measure of drug delivery according to the following formula: [formula] wherein

| Compound | % Bioavailability ± SEM, Gentamicin [2] | other results |
| --- | --- | --- |
| Gentamicin | – | Control bioavailability (without adjuvant) [1]: 1 ± 0.7%; % Bioavailability ± SEM, Gentamicin (adjuvant: None) ([2]; 10 mg/kg, 1.5 h): 1 ± 0.7% |
| CO[C@@]1(NC(=O)Cc2cccs2)C(=O)N2C(C(=O)O)=C(COC(N)=O)CS[C@@H]21 [Cefoxitin, (6R-cis)-3-[[(Aminocarbonyloxy]methyl]-7-methoxy-8-oxo-7-[(2-thienylacetyl))amino]-5-thia-1-azabicyclo [4.2.0]oct-2-ene-2-carboxylic acid] | – | bioavailability at 1.5 h [3]: 2 ± 0.6% |
| CN(C)CCCN1c2ccccc2Sc2ccc(Cl)cc21 [Chlorpromazine, chlorpromazine] | 107 ± 6.2% | – |

More lines, main results first:

| % Bioavailability ± SEM, Gentamicin [2] | Compound | other results |
| --- | --- | --- |
| 115 ± 11.5% | CSc1ccc2c(c1)N(CCC1CCCCN1C)c1ccccc1S2 (stereo not shown) [Tiorioazine, thioridazine] | – |
| 76 ± 10.9% | CN1CCN(CCCN2c3ccccc3Sc3ccc(Cl)cc32)CC1 [Prochlorperazine] | – |
| 100 ± 8.3% | OCCN1CCN(CCCN2c3ccccc3Sc3ccc(Cl)cc32)CC1 [Perphenazine, perphenazine] | – |
